Read-outs that look alike come from different tables or passages of the source.
Columns and labels:
EGFR L858R/C797S = EGFR L858R/C797S (Homo sapiens, UniProt P00533, C797S/L858R); test: Biochemical EGFR kinase inhibition assay (Lance Ultra TR-FRET), double mutant L858R/C797S
Experimental: (§1) Biochemical EGFR kinase assays were conducted using Lance Ultra time-resolved fluorescence resonance energy transfer (TR-FRET) technology from Perkin-Elmer. Compounds of the invention were initially diluted to 20 mM in 100% DMSO for storage and made into kinase buffer solution to create a compound concentration ranging from 0.003 μM and 10 μM.
(§2) Each kinase reactions were incubated at room temperature for 1 hour and then stopped by the addition of 4 μL of stop solution (10 mM EDTA). The specific Europium-labeled-anti-phosphopeptide antibody (PerkinElmer, AD0069) diluted in LANCE detection buffer was then added to a final concentration of 2 nM. After 60 minutes incubation at room temperature the LANCE signal was measured on an EnVision Multilabel Reader (Perkin-Elmer). Excitation wavelength was set at 320 nm and emission monitored at 615 nm (donor) and 665 nm (acceptor). The IC50 values were determined using GraphPad prism software (GraphPad Software, Inc., San Diego, CA, USA).

EGFR Del19/T790M/C797S = EGFR Del19/T790M/C797S (Homo sapiens, UniProt P00533, C797S/DEL746-750/T790M); test: Biochemical EGFR kinase inhibition assay (Lance Ultra TR-FRET), triple mutant del19/T790M/C797S
Experimental: as §1, §2

EGFR L858R/T790M/C797S = EGFR L858R/T790M/C797S (Homo sapiens, UniProt P00533, C797S/L858R/T790M); test: Biochemical EGFR kinase inhibition assay (Lance Ultra TR-FRET), triple mutant L858R/T790M/C797S
Experimental: as §1, §2

EGFR wildtype (WT) = EGFR wildtype (WT) (Homo sapiens, UniProt P00533); test: Biochemical EGFR kinase inhibition assay (Lance Ultra TR-FRET), wildtype
Experimental: as §1, §2

EGFR Del19/C797S = EGFR Del19/C797S (Homo sapiens, UniProt P00533, C797S/DEL746-750); test: Biochemical EGFR kinase inhibition assay (Lance Ultra TR-FRET), double mutant del19/C797S
Experimental: as §1, §2

[1] = Km ATP, read-out: IC50 L858R/C797S (nM) Km ATP
[2] = Km ATP, read-out: IC50 Del19/T790M/C797S (nM) Km ATP
[3] = Km ATP, read-out: IC50 L858R/T790M/C797S (nM) Km ATP
[4] = Km ATP, read-out: IC50 WT (nM) Km ATP
[5] = Km ATP, read-out: IC50 Del19/C797S (nM) Km ATP
[6] = IC50 L858R/C797S (nM), 100 μM ATP
[7] = IC50 Del19/T790M/C797S (nM), 100 μM ATP
[8] = IC50 L858R/T790M/C797S (nM), 100 μM ATP
[9] = IC50 Del19/C797S (nM), 100 μM ATP
[10] = ATP at Km, read-out: IC50 Del19/T790M/C797S (nM), Km ATP
[11] = ATP at Km, read-out: IC50 Del19/C797S (nM), Km ATP
[12] = ATP at Km, read-out: IC50 WT (nM), Km ATP

Sequence of EGFR wildtype (WT) (P00533 25-1210): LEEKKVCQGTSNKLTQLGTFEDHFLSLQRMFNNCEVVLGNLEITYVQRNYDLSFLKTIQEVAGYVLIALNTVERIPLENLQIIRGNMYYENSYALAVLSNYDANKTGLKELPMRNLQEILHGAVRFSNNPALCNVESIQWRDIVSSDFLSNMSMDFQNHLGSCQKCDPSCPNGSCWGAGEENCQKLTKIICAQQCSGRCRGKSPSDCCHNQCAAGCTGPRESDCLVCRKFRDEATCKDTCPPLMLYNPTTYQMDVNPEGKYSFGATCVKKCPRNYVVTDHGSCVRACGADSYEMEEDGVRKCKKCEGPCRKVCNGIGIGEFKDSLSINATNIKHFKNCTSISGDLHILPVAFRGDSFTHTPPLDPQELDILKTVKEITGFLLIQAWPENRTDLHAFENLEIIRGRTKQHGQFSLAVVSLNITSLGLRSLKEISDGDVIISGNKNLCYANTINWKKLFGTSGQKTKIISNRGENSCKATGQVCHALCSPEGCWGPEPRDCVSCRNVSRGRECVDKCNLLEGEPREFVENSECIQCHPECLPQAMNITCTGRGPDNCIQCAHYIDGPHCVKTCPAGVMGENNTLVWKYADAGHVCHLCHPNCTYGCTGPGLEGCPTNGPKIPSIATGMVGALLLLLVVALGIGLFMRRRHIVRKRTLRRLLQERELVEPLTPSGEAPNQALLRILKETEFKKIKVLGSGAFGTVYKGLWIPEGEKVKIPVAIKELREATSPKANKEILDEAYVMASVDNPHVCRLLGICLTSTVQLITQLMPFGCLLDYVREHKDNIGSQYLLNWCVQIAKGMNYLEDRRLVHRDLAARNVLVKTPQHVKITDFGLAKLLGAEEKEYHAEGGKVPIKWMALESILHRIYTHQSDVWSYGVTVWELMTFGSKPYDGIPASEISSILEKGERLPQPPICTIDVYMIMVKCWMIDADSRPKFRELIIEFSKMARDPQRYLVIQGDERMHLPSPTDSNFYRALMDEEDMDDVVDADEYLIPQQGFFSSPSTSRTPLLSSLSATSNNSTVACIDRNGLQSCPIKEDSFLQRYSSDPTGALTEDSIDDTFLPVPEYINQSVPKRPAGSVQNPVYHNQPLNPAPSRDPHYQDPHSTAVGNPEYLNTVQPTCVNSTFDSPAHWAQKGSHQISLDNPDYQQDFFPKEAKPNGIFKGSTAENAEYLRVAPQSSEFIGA
Sequence of EGFR Del19/C797S (P00533 with tags, fused parts or gaps DEL746-750/C797S): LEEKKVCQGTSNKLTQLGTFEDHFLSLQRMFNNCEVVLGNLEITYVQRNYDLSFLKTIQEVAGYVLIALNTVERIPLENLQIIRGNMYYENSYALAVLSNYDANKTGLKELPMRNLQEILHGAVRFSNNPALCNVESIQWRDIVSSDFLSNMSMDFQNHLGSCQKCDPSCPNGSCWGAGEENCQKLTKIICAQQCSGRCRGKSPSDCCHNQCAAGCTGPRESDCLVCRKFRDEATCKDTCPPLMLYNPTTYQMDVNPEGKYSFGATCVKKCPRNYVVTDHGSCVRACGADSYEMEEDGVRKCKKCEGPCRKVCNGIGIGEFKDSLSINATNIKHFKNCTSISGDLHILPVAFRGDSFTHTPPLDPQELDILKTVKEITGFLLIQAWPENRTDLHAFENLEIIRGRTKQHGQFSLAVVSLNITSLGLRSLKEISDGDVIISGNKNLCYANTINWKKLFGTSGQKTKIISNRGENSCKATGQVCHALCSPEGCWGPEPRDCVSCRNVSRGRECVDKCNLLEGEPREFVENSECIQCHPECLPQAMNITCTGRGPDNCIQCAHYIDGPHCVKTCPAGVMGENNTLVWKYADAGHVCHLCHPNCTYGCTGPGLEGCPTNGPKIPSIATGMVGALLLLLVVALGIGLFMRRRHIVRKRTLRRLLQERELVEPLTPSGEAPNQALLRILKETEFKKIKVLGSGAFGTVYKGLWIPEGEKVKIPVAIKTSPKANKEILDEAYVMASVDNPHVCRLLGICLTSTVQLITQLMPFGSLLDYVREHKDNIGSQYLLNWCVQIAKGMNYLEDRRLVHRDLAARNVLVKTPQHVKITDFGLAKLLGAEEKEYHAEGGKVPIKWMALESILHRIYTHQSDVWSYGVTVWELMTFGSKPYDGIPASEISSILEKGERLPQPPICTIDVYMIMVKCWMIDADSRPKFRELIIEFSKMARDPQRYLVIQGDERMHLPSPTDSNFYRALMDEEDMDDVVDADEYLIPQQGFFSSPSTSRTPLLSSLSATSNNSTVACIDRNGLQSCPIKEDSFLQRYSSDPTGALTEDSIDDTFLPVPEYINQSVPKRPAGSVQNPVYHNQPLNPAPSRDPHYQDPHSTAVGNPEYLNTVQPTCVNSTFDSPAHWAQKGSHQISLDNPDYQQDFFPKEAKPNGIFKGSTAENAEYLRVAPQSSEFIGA
Sequence of EGFR Del19/T790M/C797S (P00533 with tags, fused parts or gaps DEL746-750/T790M/C797S): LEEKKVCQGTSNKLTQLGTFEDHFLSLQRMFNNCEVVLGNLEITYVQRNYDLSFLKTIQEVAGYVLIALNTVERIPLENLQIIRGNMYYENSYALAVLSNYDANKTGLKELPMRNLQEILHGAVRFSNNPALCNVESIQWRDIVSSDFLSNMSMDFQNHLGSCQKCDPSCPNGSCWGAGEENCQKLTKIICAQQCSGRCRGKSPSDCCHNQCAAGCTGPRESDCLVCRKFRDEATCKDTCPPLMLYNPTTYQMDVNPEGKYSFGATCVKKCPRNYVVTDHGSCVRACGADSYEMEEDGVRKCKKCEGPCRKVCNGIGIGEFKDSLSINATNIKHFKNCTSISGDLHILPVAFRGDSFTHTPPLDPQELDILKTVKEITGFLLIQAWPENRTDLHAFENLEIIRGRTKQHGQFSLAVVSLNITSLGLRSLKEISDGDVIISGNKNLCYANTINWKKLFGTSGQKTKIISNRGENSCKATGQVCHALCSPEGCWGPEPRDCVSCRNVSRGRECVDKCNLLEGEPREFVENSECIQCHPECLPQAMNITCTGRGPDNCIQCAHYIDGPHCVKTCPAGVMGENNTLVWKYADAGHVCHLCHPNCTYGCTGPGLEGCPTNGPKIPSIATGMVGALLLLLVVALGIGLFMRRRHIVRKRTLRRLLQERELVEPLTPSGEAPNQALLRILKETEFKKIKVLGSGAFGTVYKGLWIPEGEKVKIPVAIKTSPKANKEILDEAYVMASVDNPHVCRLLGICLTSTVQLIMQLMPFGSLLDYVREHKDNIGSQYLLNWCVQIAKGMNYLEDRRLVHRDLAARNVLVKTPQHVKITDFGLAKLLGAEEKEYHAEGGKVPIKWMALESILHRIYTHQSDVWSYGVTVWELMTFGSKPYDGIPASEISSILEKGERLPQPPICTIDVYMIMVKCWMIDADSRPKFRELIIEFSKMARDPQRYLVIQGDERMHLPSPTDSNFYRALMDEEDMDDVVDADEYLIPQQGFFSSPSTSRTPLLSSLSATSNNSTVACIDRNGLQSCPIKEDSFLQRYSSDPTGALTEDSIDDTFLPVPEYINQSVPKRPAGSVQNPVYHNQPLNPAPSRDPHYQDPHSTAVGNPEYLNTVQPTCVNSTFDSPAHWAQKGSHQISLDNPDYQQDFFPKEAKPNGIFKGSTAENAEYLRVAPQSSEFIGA
Sequence of EGFR L858R/T790M/C797S (P00533 25-1210 T790M/C797S/L858R): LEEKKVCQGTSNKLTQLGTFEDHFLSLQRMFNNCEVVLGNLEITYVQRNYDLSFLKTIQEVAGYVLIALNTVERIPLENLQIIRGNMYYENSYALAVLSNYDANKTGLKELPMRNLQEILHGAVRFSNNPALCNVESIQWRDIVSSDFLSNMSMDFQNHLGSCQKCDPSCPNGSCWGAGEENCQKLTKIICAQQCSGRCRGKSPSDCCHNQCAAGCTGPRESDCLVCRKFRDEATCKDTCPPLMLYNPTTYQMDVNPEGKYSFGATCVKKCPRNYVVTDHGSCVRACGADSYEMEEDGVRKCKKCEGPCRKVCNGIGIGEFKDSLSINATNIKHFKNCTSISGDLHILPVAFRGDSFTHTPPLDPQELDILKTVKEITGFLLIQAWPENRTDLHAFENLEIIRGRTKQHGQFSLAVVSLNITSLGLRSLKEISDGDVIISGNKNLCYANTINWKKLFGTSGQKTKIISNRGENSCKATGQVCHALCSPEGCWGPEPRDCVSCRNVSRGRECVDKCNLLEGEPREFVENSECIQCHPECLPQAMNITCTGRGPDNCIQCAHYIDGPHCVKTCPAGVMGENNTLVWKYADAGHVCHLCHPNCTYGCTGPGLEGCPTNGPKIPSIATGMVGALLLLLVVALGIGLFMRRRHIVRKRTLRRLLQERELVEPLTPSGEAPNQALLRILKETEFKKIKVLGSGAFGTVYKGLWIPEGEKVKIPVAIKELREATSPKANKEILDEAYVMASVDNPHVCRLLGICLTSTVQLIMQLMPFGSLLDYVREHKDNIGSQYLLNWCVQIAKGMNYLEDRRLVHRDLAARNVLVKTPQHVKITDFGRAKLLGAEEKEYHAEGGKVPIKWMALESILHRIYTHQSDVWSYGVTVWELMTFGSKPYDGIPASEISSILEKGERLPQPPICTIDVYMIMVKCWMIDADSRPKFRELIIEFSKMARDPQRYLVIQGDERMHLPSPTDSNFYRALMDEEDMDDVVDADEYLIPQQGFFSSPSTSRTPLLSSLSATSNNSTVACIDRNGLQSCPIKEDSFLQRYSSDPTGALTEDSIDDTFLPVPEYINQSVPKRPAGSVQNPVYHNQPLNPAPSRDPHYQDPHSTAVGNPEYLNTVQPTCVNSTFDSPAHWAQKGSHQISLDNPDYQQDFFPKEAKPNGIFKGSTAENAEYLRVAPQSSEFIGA

SMILES | IC50 (EGFR Del19/T790M/C797S; [2]) | IC50 (EGFR L858R/T790M/C797S; [3]) | IC50 (EGFR wildtype (WT); [4]) | IC50 (EGFR Del19/C797S; [5]) | IC50 (EGFR L858R/C797S; [6]) | IC50 (EGFR Del19/T790M/C797S; [7]) | IC50 (EGFR L858R/T790M/C797S; [8]) | IC50 (EGFR wildtype (WT); IC50 WT (nM), 100 μM ATP) | IC50 (EGFR Del19/C797S; [9]) | other results
CN1CCN(c2cc(Nc3ccnc(-c4cnn(S(=O)(=O)C5CC5)c4)n3)ncc2C#Cc2cnn(C)c2)CC1 [Example 1, 2-(1-(Cyclopropylsulfonyl)-1H-pyrazol-4-yl)-N-(5-((1-methyl-1H-pyrazol-4-yl)ethynyl)-4-(4-methylpiperazin-1-yl)pyridin-2-yl)pyrimidin-4-amine] | 1.3 nM | 5.4 nM | 230 nM | 71.3 nM | – | – | – | – | – | IC50 (EGFR L858R/C797S; [1]): 34.6 nM
Cn1cc(C#Cc2cnc(Nc3ccnc(-c4cnn(S(=O)(=O)C5CC5)c4)n3)cc2NC2CCCCC2)cn1 [Example 2, N^4-Cyclohexyl-N^2-(2-(1-(cyclopropylsulfonyl)-1H-pyrazol-4-yl)pyrimidin-4-yl)-5-((1-methyl-1H-pyrazol-4-yl)ethynyl)pyridine-2,4-diamine] | 5.7 nM | 11.2 nM | 881 nM | 112 nM | – | – | – | – | – | IC50 (EGFR L858R/C797S; [1]): 143 nM
C[C@H](CCO)Nc1cc(Nc2ccnc(-c3cnn(S(=O)(=O)C4CC4)c3)n2)ncc1C#Cc1cnn(C)c1 [Example 4, (R)-3-((2-((2-(1-(Cyclopropylsulfonyl)-1H-pyrazol-4-yl)pyrimidin-4-yl)amino)-5-((1-methyl-1H-pyrazol-4-yl)ethynyl)pyridin-4-yl)amino)butan-1-ol] | – | – | – | – | 103 nM | 1.1 nM | 12.6 nM | > 10000 nM | 38.6 nM | –
C[C@H](Nc1cc(Nc2ccnc(-c3cnn(S(=O)(=O)C4CC4)c3)n2)ncc1C#Cc1cnn(C)c1)C(C)(C)O [Example 5, (S)-3-((2-((2-(1-(Cyclopropylsulfonyl)-1H-pyrazol-4-yl)pyrimidin-4-yl)amino)-5-((1-methyl-1H-pyrazol-4-yl)ethynyl)pyridin-4-yl)amino)-2-methylbutan-2-ol] | – | – | – | – | 418 nM | 3.8 nM | 44.3 nM | > 10000 nM | 404 nM | –
Cn1cc(C#Cc2cnc(Nc3ccnc(-c4cnn(S(=O)(=O)C5CC5)c4)n3)cc2N2CCCC(O)C2)cn1 (stereo not shown) [Example 6, 1-(2-((2-(1-(Cyclopropylsulfonyl)-1H-pyrazol-4-yl)pyrimidin-4-yl)amino)-5-((1-methyl-1H-pyrazol-4-yl)ethynyl)pyridin-4-yl)piperidin-3-ol] | – | – | – | – | 24.1 nM | 0.5 nM | 4.2 nM | 6020 nM | 5.1 nM | –
Cn1cc(C#Cc2cnc(Nc3ccnc(-c4cnn(S(=O)(=O)C5CC5)c4)n3)cc2N2CCC(=O)CC2)cn1 [Example 7, 1-(2-((2-(1-(Cyclopropylsulfonyl)-1H-pyrazol-4-yl)pyrimidin-4-yl)amino)-5-((1-methyl-1H-pyrazol-4-yl)ethynyl)pyridin-4-yl)piperidin-4-one] | – | – | – | – | 143 nM | 4.5 nM | 5 nM | > 10000 nM | 24.2 nM | –
Cc1nc(C#Cc2cnc(Nc3ccnc(-c4cnn(S(=O)(=O)C5CC5)c4)n3)cc2NC(C)C)cs1 [Example 199, N^2-(2-(1-(Cyclopropylsulfonyl)-1H-pyrazol-4-yl)pyrimidin-4-yl)-N^4-isopropyl-5-((2-methylthiazol-4-yl)ethynyl)pyridine-2,4-diamine] | – | – | – | – | – | – | – | – | – | IC50 (EGFR L858R/C797S; ATP at Km, read-out: IC50 L858R/C797S (nM), Km ATP): 414 nM; IC50 (EGFR Del19/T790M/C797S; [10]): 5.7 nM; IC50 (EGFR L858R/T790M/C797S; ATP at Km, read-out: IC50 L858R/T790M/C797S (nM), Km ATP): 3.4 nM; IC50 (EGFR Del19/C797S; [11]): 82 nM
CC(C)Nc1cc(Nc2ccnc(-c3cnn(S(=O)(=O)C4CC4)c3)n2)ncc1C#Cc1csc(CF)n1 [Example 200, N^2-(2-(1-(cyclopropylsulfonyl)-1H-pyrazol-4-yl)pyrimidin-4-yl)-5-((2-(fluoromethyl)thiazol-4-yl)ethynyl)-N^4-isopropylpyridine-2,4-diamine] | – | – | – | – | – | 11.3 nM | 29.8 nM | > 10000 nM | 1000 nM | IC50 (EGFR Del19/T790M/C797S; [10]): 12.6 nM; IC50 (EGFR wildtype (WT); [12]): 4100 nM; IC50 (EGFR Del19/C797S; [11]): 350 nM
CC(C)Nc1cc(Nc2ccnc(-c3cnn(S(=O)(=O)C4CC4)c3)n2)ncc1C#CCCCNC(=O)N1CCOCC1 [Example 207, N-(5-(6-((2-(1-(Cyclopropylsulfonyl)-1H-pyrazol-4-yl)pyrimidin-4-yl)amino)-4-(isopropylamino)pyridin-3-yl)pent-4-yn-1-yl)morpholine-4-carboxamide] | – | – | – | – | 120 nM | 2.9 nM | – | > 10000 nM | 76.4 nM | IC50 (EGFR Del19/T790M/C797S; [10]): 2.1 nM; IC50 (EGFR wildtype (WT); [12]): 56 nM; IC50 (EGFR Del19/C797S; [11]): 29.1 nM
CC(C)Nc1cc(Nc2ccnc(-c3cnn(S(=O)(=O)C4CC4)c3)n2)ncc1C#CCCCC(=O)N1CCOCC1 [Example 208, 6-(6-((2-(1-(Cyclopropylsulfonyl)-1H-pyrazol-4-yl)pyrimidin-4-yl)amino)-4-(isopropylamino)pyridin-3-yl)-1-morpholinohex-5-yn-1-one] | – | – | – | – | – | 3.5 nM | 8.1 nM | > 10000 nM | 120 nM | IC50 (EGFR Del19/T790M/C797S; [10]): 5.1 nM; IC50 (EGFR wildtype (WT); [12]): 107 nM; IC50 (EGFR Del19/C797S; [11]): 56 nM
CC(C)Nc1cc(Nc2ccnc(-c3cnn(S(=O)(=O)C4CC4)c3)n2)ncc1C#CCCCCC(=O)N1CCOCC1 [Example 210, 7-(6-((2-(1-(Cyclopropylsulfonyl)-1H-pyrazol-4-yl)pyrimidin-4-yl)amino)-4-(isopropylamino)pyridin-3-yl)-1-morpholinohept-6-yn-1-one] | – | – | – | – | 157 nM | 3.4 nM | – | > 10000 nM | 143 nM | –
Cc1nc(C#Cc2cnc(Nc3ccnc(-c4cnn(S(=O)(=O)C5CC5)c4)n3)cc2N[C@H]2CC[C@H](O)C2)cs1 [Example 222, (1 S,3S)-3-((2-((2-(1-(Cyclopropylsulfonyl)-1H-pyrazol-4-yl)pyrimidin-4-yl)amino)-5-((2-methylthiazol-4-yl)ethynyl)pyridin-4-yl)amino)cyclopentan-1-ol] | – | – | – | – | – | 5.2 nM | 12.2 nM | > 10000 nM | 197 nM | –
Cn1cc(C#Cc2cnc(Nc3ccnc(-c4cnn(S(=O)(=O)C5CC5)c4)n3)cc2-c2cnn(C)c2)cn1 [Example 233, 2-(1-(Cyclopropylsulfonyl)-1H-pyrazol-4-yl)-N-(4-(1-methyl-1H-pyrazol-4-yl)-5-((1-methyl-1H-pyrazol-4-yl)ethynyl)pyridin-2-yl)pyrimidin-4-amine] | 4.5 nM | 15.5 nM | 1340 nM | 299 nM | – | – | – | – | – | –
Cn1cc(-c2cc(Nc3ccnc(-c4cnn(S(=O)(=O)C5CC5)c4)n3)ncc2C#Cc2cnn(CCF)c2)cn1 [Example 234, 2-(1-(Cyclopropylsulfonyl)-1H-pyrazol-4-yl)-N-(5-((1-(2-fluoroethyl)-1H-pyrazol-4-yl)ethynyl)-4-(1-methyl-1H-pyrazol-4-yl)pyridin-2-yl)pyrimidin-4-amine] | 4.1 nM | 16.1 nM | 1010 nM | 214 nM | – | – | – | – | – | –
Cn1cc(C#Cc2cnc(Nc3ccnc(-c4cnn(S(=O)(=O)C5CC5)c4)n3)cc2-c2cnn(C3CC3)c2)cn1 [Example 235, N-(4-(1-Cyclopropyl-1H-pyrazol-4-yl)-5-((1-methyl-1H-pyrazol-4-yl)ethynyl)pyridin-2-yl)-2-(1-(cyclopropylsulfonyl)-1H-pyrazol-4-yl)pyrimidin-4-amine] | 4.7 nM | 13.2 nM | 2220 nM | 311 nM | – | – | – | – | – | –
O=S(=O)(C1CC1)n1cc(-c2nccc(Nc3cc(-c4cnn(C5CC5)c4)c(C#Cc4cnn(CCF)c4)cn3)n2)cn1 [Example 237, N-(4-(1-Cyclopropyl-1H-pyrazol-4-yl)-5-((1-(2-fluoroethyl)-1H-pyrazol-4-yl)ethynyl)pyridin-2-yl)-2-(1-(cyclopropylsulfonyl)-1H-pyrazol-4-yl)pyrimidin-4-amine] | 5.5 nM | 16.5 nM | 2720 nM | 232 nM | – | – | – | – | – | –

— patent US11981658B2, “Substituted aminopyridine compounds as EGFR inhibitors” (YUHAN CORPORATION, priority 2021, dated 2024)
